Eight compounds from PubChem BioAssay (NCI) can be followed below.

“And” between values parts separate entries of the source, which are not always exact repeats. Equal entries are not always repeated.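 Five compound concentrations were applied to cells in 96-well plates for 48 hours; endpoints were derived by simple linear interpolation of the resulting dose-response curve. Abbreviation: GI50, concentration required for 50% inhibition of growth. At the TGI there is no net growth.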

Some test systems named below: LOX IMVI melanoma; UACC-257 melanoma; SF-539 CNS; T-47D breast; U251 CNS; COLO 205 colon; HOP-62 NSCLC; SR leukemia; CAKI-1 renal; PC-3 prostate.
Assay in all cases: NCI anticancer screen, dose series, 48 h

Regarding `CCCCCCCCCCCC1CCCC(C)N1` (stereo not drawn), the GI50 is 3.62 µM with LOX IMVI melanoma; 10.3 µM with UACC-257 melanoma; 12.2 µM in the test with SF-539 CNS; 2.16 µM with T-47D breast; 4.53 µM with U251 CNS; 1.56 µM in the test on COLO 205 colon. For the same compound, the GI50 is 14.8 µM with HOP-62 NSCLC, 2.63 µM in the test on SR leukemia, 4.84 µM in the test with CAKI-1 renal and 5.57 µM with PC-3 prostate. Further, the TGI was 16.1 µM and > 70.7 µM with LOX IMVI melanoma; 24.4 µM and 119 µM in the test on UACC-257 melanoma; 24.8 µM and 141 µM in the test with SF-539 CNS; 12.8 µM with T-47D breast; 18.2 µM and 128 µM in the test with U251 CNS; 46 µM and 107 µM with HOP-62 NSCLC. Besides, the TGI is > 100 µM in the test on SR leukemia; 19.5 µM and 116 µM in the test with CAKI-1 renal; 45 µM with PC-3 prostate.
Take `COc1ccc2c(c1)C(=O)c1c-2c(Nc2ccc(Cl)cc2)nc2ccccc12`: the GI50 in the test on LOX IMVI melanoma was 14.2 µM; in the test on UACC-257 melanoma it was 27.8 µM; with SF-539 CNS, 8.76 µM; in the test with T-47D breast, 17.8 µM; in the test with U251 CNS, 5.51 µM; in the test with COLO 205 colon, 34.8 µM. Besides, the GI50 was 2.86 µM in the test with HOP-62 NSCLC, 14 µM in the test on SR leukemia, 20.4 µM with CAKI-1 renal and 15.5 µM in the test on PC-3 prostate. In addition, the TGI in the test with LOX IMVI melanoma was 54.9 µM; in the test with UACC-257 melanoma, > 100 µM; in the test on SF-539 CNS it was 26.2 µM; with T-47D breast, > 100 µM; in the test with U251 CNS it was 18.4 µM; in the test with COLO 205 colon, > 100 µM. Besides, the TGI was 11.3 µM with HOP-62 NSCLC, 58.2 µM in the test on SR leukemia, > 100 µM in the test on CAKI-1 renal and 63.3 µM with PC-3 prostate.
For `c1cc(CNCCN2CCNCC2)ccn1`, the TGI with LOX IMVI melanoma, in the test on UACC-257 melanoma, with SF-539 CNS, in the test on T-47D breast, with U251 CNS and in the test on COLO 205 colon was > 100 µM each time. In addition, the TGI in the test on HOP-62 NSCLC, with SR leukemia, in the test with CAKI-1 renal and in the test with PC-3 prostate was > 100 µM throughout.
With `O=C(NCc1ccc(Cn2c(=O)sn(-c3ccccc3)c2=O)cc1)OCc1ccc2c(Br)cc(Br)c(O)c2n1`, the GI50 in the test on LOX IMVI melanoma was 0.171 µM; with UACC-257 melanoma it was 1.26 µM; in the test on SF-539 CNS it was 0.793 µM; in the test with T-47D breast it was 1.71 µM; in the test on U251 CNS, 1.52 µM; in the test on COLO 205 colon, 0.399 µM. For the same compound, the GI50 with HOP-62 NSCLC was 1.52 µM; in the test with SR leukemia, 0.376 µM; in the test with CAKI-1 renal, 0.404 µM; in the test on PC-3 prostate, 0.727 µM. Moreover, the TGI amounted to 0.348 µM with LOX IMVI melanoma; 2.74 µM in the test on UACC-257 melanoma; 2.07 µM in the test with SF-539 CNS; 5.66 µM with T-47D breast; 3 µM in the test with U251 CNS; 1.79 µM with COLO 205 colon. In addition, the TGI in the test on HOP-62 NSCLC is 3.45 µM; in the test with SR leukemia, > 100 µM; in the test with CAKI-1 renal it was 1.67 µM; in the test on PC-3 prostate, 2.18 µM.
Take `COc1cc(/C=C/C(=O)c2ccc(NC(=O)CN3CCN(c4cc5c(cc4F)c(=O)c(C(=O)O)cn5C4CC4)CC3)cc2)cc(OC)c1OC`: the GI50 was 0.511 µM with LOX IMVI melanoma; 1.42 µM in the test on UACC-257 melanoma; 0.721 µM with SF-539 CNS; 1.67 µM in the test on T-47D breast; 0.373 µM in the test on U251 CNS; 1.34 µM in the test on COLO 205 colon. For the same compound, the GI50 in the test with HOP-62 NSCLC is 0.353 µM; in the test on SR leukemia it was 0.245 µM; in the test on CAKI-1 renal it was 1.47 µM; in the test with PC-3 prostate it was 0.782 µM. Also, the TGI with LOX IMVI melanoma was 2.24 µM; with UACC-257 melanoma it was 65.4 µM; in the test on SF-539 CNS it was 3.03 µM; in the test with T-47D breast, > 57 µM; in the test on U251 CNS it was 1.47 µM; with COLO 205 colon it was 8.11 µM. Also, the TGI in the test on HOP-62 NSCLC is 3.93 µM; with SR leukemia it was > 100 µM; with CAKI-1 renal it was > 32.5 µM; in the test with PC-3 prostate, > 100 µM.
Take `O=[N+]([O-])c1c(Br)sc(Br)c1[N+](=O)[O-]`: the GI50 in the test with LOX IMVI melanoma was 1.58 µM; with UACC-257 melanoma, 1.52 µM; in the test with SF-539 CNS, 2.49 µM; in the test on T-47D breast, 1.84 µM; in the test with U251 CNS, 2.15 µM; in the test on COLO 205 colon, 1.57 µM. The GI50 is 3.25 µM with HOP-62 NSCLC, 0.633 µM in the test with SR leukemia, 1.83 µM with CAKI-1 renal and 1.94 µM with PC-3 prostate. In addition, the TGI with LOX IMVI melanoma turned out to be 3.07 µM; with UACC-257 melanoma, 3.04 µM; in the test on SF-539 CNS it was 6.35 µM; in the test on T-47D breast, 4.38 µM; in the test on U251 CNS it was 5.46 µM; in the test with COLO 205 colon, 3.38 µM. Also, the TGI stood at 11.3 µM in the test on HOP-62 NSCLC, 11.7 µM with SR leukemia, 3.63 µM in the test on CAKI-1 renal and 4.03 µM in the test on PC-3 prostate.
Regarding `CC(=Nc1ccccc1)C1=C(O)C(Cc2ccccc2)NC1=O` (stereo not drawn), the GI50 is 0.0574 µM with LOX IMVI melanoma; > 100 µM in the test with UACC-257 melanoma; 0.0439 µM with SF-539 CNS; > 100 µM with T-47D breast; 0.0373 µM in the test with U251 CNS; 0.0279 µM in the test on COLO 205 colon. The GI50 in the test with HOP-62 NSCLC was 0.0435 µM; with SR leukemia, 0.0231 µM; with CAKI-1 renal it was 0.0299 µM; in the test on PC-3 prostate, 0.036 µM. The TGI is > 34 µM in the test with LOX IMVI melanoma; > 100 µM with UACC-257 melanoma; 0.501 µM in the test on SF-539 CNS; > 100 µM in the test with T-47D breast; > 37.2 µM with U251 CNS; 0.0824 µM with COLO 205 colon. Besides, the TGI in the test on SR leukemia is > 30.9 µM; in the test with CAKI-1 renal it was > 76.4 µM; in the test on PC-3 prostate, > 100 µM.
For the compound `Cc1occc1C(=S)Nc1ccc(Cl)c(C(=O)OC(C)C2CC2)c1` (stereo not drawn), the TGI was 49.5 µM in the test with LOX IMVI melanoma; > 100 µM with UACC-257 melanoma; 71.6 µM in the test with SF-539 CNS; > 100 µM in the test with T-47D breast; 70.5 µM with U251 CNS; 51.3 µM in the test on COLO 205 colon. For the same compound, the TGI in the test on HOP-62 NSCLC was 57.7 µM; in the test on SR leukemia it was 68.2 µM; with CAKI-1 renal it was 48.8 µM; in the test on PC-3 prostate, 41.3 µM.
